Experimental data: patent publication US12502374B2, “Composition for preventing, alleviating, or treating inflammatory disease containing isookanin or salt thereof as active ingredient” (BioSpectrum, Inc., priority 2020, dated 2025)

Columns and labels:
Janus kinase 1 = Janus kinase 1 (Homo sapiens, UniProt P23458); assay: Janus kinase 1 activity inhibition, HTRF KinEASE-TK kit (TR-FRET); format: biochemical; details: FIG. 1
Description: The effect of isookanin on the inhibition of Janus kinase 1 activity was measured using the HTRF KinEASE-TK kit (Cisbio, France). HTRF is a time-resolved fluorescence resonance energy transfer technology (TR-FRET) analysis method, which is applied to high-throughput screening (HTS) and is one of the methods widely used in drug development. From general cytokine measurement, enzyme activity, protein phosphorylation, protein-protein interaction, cAMP measurement, and the like can be measured by fluorescence through acceptor/donor reaction, and HTRF has an advantage in that, since measurement is carried out in two wavelength regions, it is possible to reduce interference from buffers and media. All components of the HTRF KinEase™-TK kit were handled according to the instructions. For kinases, the ability of a test substance to inhibit kinase activity is measured by allowing a kinase to react with an appropriate substrate in the presence or absence of a sample and capturing the phosphorylated substrate by a detection reagent. Briefly, the following two steps performed.
A kinase is allowed to react with an appropriate substrate in the presence and absence of a sample. Enzyme buffer is used as a control (−) instead of the sample, and the group treated with 100 nM of loxolitinib is used as a positive control. […]
Step 2. Fluorescence Detection […]

COX-2 promoter = assay: LPS-induced COX-2 promoter luciferase reporter in RAW 264.7 macrophages; format: cell-based, mouse; details: 1, 5 and 10 ppm, LPS 100 ng/mL, FIG. 4
Description: Mouse macrophages (RAW 264.7) were seeded in a 24-well microplate at a density of about 2×10^5 cells per well, and cultured in an incubator for 24 hours at 37° C. under 5% CO2. The RAW264.7 cells were transfected with the COX-2 promoter luciferase reporter plasmid, and then treated with 1, 5, and 10 ppm of isookanin, and then treated with LPS (100 ng/mL). After culturing, the cell culture was harvested. Subsequently, luciferase enzyme activity was measured using a microplate reader (Sunrise, Tecan, Switzerland). Mouse macrophages not treated with isookanin and LPS were used as a negative control (−).

COX-2 = target: T1, COX-2 (Homo sapiens, UniProt P35354); assay: COX-2 enzyme activity, cyclooxygenase (COX) activity assay kit; format: biochemical; details: 5, 10 and 20 ppm; FIG. 5
T1 construct: BioVision
T1 sequence (P35354 18-604): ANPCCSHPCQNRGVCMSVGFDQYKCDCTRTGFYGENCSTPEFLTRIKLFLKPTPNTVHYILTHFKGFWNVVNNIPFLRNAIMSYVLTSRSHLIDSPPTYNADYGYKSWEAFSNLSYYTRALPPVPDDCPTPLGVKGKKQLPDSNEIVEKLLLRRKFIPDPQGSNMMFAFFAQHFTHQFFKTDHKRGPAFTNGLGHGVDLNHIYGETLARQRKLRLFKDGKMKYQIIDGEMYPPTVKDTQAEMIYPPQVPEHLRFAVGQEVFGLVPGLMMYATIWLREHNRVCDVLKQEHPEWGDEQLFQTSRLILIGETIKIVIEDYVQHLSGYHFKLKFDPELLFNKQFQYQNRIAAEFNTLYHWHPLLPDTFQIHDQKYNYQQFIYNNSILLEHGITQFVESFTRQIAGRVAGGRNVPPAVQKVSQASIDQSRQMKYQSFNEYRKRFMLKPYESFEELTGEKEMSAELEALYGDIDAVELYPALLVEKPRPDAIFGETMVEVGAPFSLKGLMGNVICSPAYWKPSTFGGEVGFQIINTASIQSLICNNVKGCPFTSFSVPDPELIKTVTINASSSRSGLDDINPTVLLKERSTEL
Description: COX-2 enzyme inhibitory activity was measured using a cyclooxygenase (COX) activity assay kit (BioVision). 2 μl of COX probe, 4 μl of diluted COX cofactor, and varying concentrations (5, 10, and 20 ppm) of isookanin were added to the COX assay buffer included in the kit. As a negative control, DMSO was added instead of isookanin, and as a positive control, the COX-2 inhibitor celecoxib was added.

PGE2 = assay: UV-induced PGE2 secretion in human epidermal keratinocytes (ELISA); format: cell-based; details: 1, 5 and 10 ppm, UVB 20 mJ/cm^2, FIG. 6
Description: Human epidermal keratinocytes (HEKs) were seeded in a 24-well microplate at a density of about 2×10^5 cells per well, and cultured in an incubator for 24 hours at 37° C. under 5% CO2. Thereafter, the cells were treated with each of 1, 5, and 10 ppm of isookanin, and then irradiated with UV light (UVB 20 mJ/cm^2), and then the cell culture medium was collected. Next, the secretion level of PGE2 was measured using an ELISA kit. As a negative control (−), human keratinocytes not treated with isookanin and UV light (UVB) were used.

HMEC-1 [1] = assay: PGE2-induced vascular endothelial cell migration (scratch assay); format: cell-based, human; details: 2 hours pretreatment; 20 μM PGE2, 24 hours; FIG. 9
Description: Human vascular endothelial cells (HMEC-1) were seeded in a 12-well plate at a density of 2×10^5 cells per well and cultured in an incubator for 24 hours at 37° C. under 5% CO2. After the cells in each well were grown to 80% confluency, the central part of each well was scratched using a yellow pipette tip. Next, each well was pretreated with each concentration of isookanin for 2 hours and then treated with 20 μM PGE2 and incubated for 24 hours. As a negative control, 100 ng/ml of VEGF was used. After 24 hours of incubation, the degree of vascular cell migration was observed using a microscope, and the results were photographed with a microscope camera and shown in FIG. 9.

HMEC-1 [2] = assay: PGE2-induced vascular endothelial cell tube formation on Matrigel; format: cell-based, human; details: 10 ppm, 2 hours pretreatment; 20 μM PGE2, 24 hours; FIGS. 10 and 11
Description: Human vascular endothelial cells (HMEC-1) were seeded in a Matrigel-coated 24-well plate at a density of 1.2×10^5 cells per well, and each well was pretreated with 10 ppm of isookanin for 2 hours. Next, each well was treated with PGE2 at a concentration of 20 μM and incubated for 24 hours. As a negative control, 100 ng/ml of VEGF was used. After 24 hours of incubation, the degree of vascular cell tube formation was observed using a microscope, and the results were photographed with a microscope camera and analyzed with Image J, and are shown in FIGS. 10 and 11.

Janus kinase 1, sequence (P23458 whole entry, species assumed): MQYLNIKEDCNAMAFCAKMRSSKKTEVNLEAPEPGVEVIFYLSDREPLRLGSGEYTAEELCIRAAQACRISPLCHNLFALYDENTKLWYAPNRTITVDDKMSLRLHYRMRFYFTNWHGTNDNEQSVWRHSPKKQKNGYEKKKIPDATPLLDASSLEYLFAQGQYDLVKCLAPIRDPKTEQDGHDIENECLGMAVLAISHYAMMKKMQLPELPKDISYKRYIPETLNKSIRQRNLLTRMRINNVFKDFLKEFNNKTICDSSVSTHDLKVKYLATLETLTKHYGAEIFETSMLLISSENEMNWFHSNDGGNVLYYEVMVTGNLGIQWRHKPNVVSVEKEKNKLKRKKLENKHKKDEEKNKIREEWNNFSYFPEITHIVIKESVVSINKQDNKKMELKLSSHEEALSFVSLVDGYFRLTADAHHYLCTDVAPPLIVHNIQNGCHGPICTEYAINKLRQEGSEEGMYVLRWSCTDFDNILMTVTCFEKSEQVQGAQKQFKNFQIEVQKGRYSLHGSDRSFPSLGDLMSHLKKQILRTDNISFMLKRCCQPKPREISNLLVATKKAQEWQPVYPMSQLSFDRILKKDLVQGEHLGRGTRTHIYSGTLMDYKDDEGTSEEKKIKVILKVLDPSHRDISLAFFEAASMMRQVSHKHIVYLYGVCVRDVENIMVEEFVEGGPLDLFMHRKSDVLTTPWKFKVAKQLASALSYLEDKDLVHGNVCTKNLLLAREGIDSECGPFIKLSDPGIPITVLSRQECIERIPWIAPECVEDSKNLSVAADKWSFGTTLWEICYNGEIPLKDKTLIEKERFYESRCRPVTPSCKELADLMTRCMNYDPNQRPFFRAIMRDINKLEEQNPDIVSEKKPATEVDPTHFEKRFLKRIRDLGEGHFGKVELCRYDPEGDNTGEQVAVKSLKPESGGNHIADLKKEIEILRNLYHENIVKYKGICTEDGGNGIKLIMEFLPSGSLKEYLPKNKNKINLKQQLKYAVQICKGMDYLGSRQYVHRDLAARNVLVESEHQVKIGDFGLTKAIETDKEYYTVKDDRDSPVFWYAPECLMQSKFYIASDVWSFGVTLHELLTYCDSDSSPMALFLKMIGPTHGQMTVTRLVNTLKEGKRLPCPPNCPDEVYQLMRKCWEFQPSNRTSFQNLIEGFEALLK

Question: Which results are given for `O=C1C[C@@H](c2ccc(O)c(O)c2)Oc2c1ccc(O)c2O` [isookanin]?
Answer: inhibition of Janus kinase 1 activity (Janus kinase 1): significantly inhibited; inhibition of LPS-induced activation of COX-2 promoter (COX-2 promoter): inhibiting the LPS-induced activation of COX-2 promoter in a concentration-dependent manner; inhibition of COX-2 enzyme activity (COX-2): inhibiting the activity of COX-2 enzyme in a concentration-dependent manner; inhibition of UV-induced PGE2 expression (PGE2): inhibiting the expression of PGE2 in a concentration-dependent manner; inhibition of human vascular endothelial cell migration induced by PGE2 (HMEC-1 [1]): effectively inhibiting human vascular endothelial cell migration induced by PGE2; inhibition of human vascular endothelial cell tube formation induced by PGE2 (HMEC-1 [2]): effectively inhibiting human vascular endothelial cell tube formation induced by PGE2
